Data as given in patent publication US11059832B2, “HPK1 inhibitors and methods of using same” (University Health Network, priority 2015, dated 2021).

Target: T1, human HPK1 (MAP4K1) (Homo sapiens, UniProt Q92918)
T1 construct: human HPK1 (aa 1-346); purchased Invitrogen PV6355
T1 sequence (Q92918 1-346): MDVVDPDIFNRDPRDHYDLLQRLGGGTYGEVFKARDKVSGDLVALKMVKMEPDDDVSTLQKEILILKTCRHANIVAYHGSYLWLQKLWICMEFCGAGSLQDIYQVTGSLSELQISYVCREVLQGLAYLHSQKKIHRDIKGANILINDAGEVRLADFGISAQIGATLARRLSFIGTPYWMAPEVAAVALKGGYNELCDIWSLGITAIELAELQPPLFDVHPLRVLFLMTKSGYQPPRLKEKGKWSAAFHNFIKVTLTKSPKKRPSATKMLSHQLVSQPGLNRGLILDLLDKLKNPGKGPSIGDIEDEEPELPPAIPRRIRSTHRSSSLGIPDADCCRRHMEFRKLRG
Assay: HPK1 inhibition assay (indirect ELISA)
Assay type: biochemical
Conditions: GST-HPK1 0.6 nM, 12 μM ATP; read-out: IC50 Range HPK1
Description: Active HPK1 (MAP4K1) was purchased as an N-terminal GST fusion of human HPK1 (aa 1-346) from Invitrogen (cat #PV6355). HPK1 activity was measured using an indirect ELISA detection system. GST-HPK1 (0.6 nM) was incubated in the presence of 12 μM ATP (Sigma cat #A7699), 5 mM MOPS (pH 7.2), 2.5 mM β-glycerol-phosphate, 5 mM MgCl2, 0.4 mM EDTA, 1 mM EGTA, 0.05 mM DTT, in a 96 well microtitre plate pre-coated with 0.5 μg/well bovine myelin basic protein (MBP) (Millipore, cat #13-110). The reaction was allowed to proceed for 30 min, followed by 5 washes of the plate with Wash Buffer (phosphate buffered saline supplemented with 0.2% Tween 20), and incubation for 30 min with a 1:3000 dilution of anti-phospho-threonine rabbit polyclonal antibody (Cell Signaling cat #9381). The plate was washed 5 times with wash buffer, incubated for 30 min in the presence of goat anti-rabbit horse radish peroxidase conjugate (BioRad cat #1721019, 1:3000 concentration), washed an additional 5 times with wash buffer, and incubated in the presence of TMB substrate (Sigma cat #T0440). The colorimetric reaction was allowed to continue for 5 min, followed by addition of stop solution (0.5 N H2SO4), and quantified by detection at 450 nm with a monochromatic plate reader (Molecular Devices M5).
Compound inhibition was determined at either a fixed concentration (10 μM) or at a variable inhibitor concentration (typically 50 μM to 0.1 μM in a 10 point dose response titration). Compounds were pre-incubated in the presence of enzyme for 15 min prior to addition of ATP and the activity remaining quantified using the above described activity assay. The % inhibition of a compound was determined using the following formula; % inhibition=100×(1−(experimental value−background value)/(high activity control−background value)). The IC50 value was determined using a non-linear 4 point logistic curve fit (XLfit4, IDBS) with the formula; (A+(B/(1+((x/C)^D)))), where A=background value, B=range, C=inflection point, D=curve fit parameter.

IC50, 50 to 500 nM:
CCOc1csc2[nH]c(=O)c(-c3nc4ccc(N5CCN(C)CC5)cc4[nH]3)c(N)c12 [Example A6, 4-amino-3-ethoxy-5-(6-(4-methylpiperazin-1-yl)-1H-benzo[d]imidazol-2-yl)thieno[2,3-b]pyridin-6(7H)-one]
Cc1csc2[nH]c(=O)c(-c3nc4ccc(N5CCN(C)CC5)cc4[nH]3)c(NC3CCCC3)c12 [Example A19, 4-(cyclopentylamino)-3-methyl-5-(6-(4-methylpiperazin-1-yl)-1H-benzo[d]imidazol-2-yl)thieno[2,3-b]pyridin-6(7H)-one]
CN1CCN(C(=O)c2ccc3[nH]c(-c4c(N)c5ccsc5[nH]c4=O)nc3c2)CC1 [Example A60, 4-amino-5-(5-(4-methylpiperazine-1-carbonyl)-1H-benzo[d]imidazol-2-yl)thieno[2,3-b]-pyridin-6(7H)-one]
Nc1c(-c2nc3cc(C(=O)N4CCOCC4)ccc3[nH]2)c(=O)[nH]c2sccc12 [Example A62, 4-amino-5-(5-(morpho-line-4-carbonyl)-1H-benzo-[d]imidazol-2-yl)thieno[2,3-b]pyridin-6(7H)-one]
C[C@@H]1CN(c2ccc3nc(-c4c(N[C@H]5CCCC[C@H]5O)c5ccsc5[nH]c4=O)[nH]c3c2)C[C@H](C)O1 [Example A73]

IC50, ≤ 50 nM:
CN1CCN(c2ccc3nc(-c4c(N[C@H]5CCOC5)c5ccsc5[nH]c4=O)[nH]c3c2)CC1 [Example A11, (S)-5-(6-(4-methylpiperazin-1-yl)-1H-benzo[d]imidazol-2-yl)-4-((tetrahydrofuran-3-yl)amino)thieno[2,3-b]pyridin-6(7H)-one]
CN1CCN(c2ccc3nc(-c4c(N[C@H]5C[C@@H](O)C5)c5ccsc5[nH]c4=O)[nH]c3c2)CC1 [Example A12, 4-(((1s,3s)-3-hydroxycyclobutyl)amino)-5-(6-(4-methylpiperazin-1-yl)-1H-benzo[d]imidazol-2-yl)thieno[2,3-b]pyridin-6(7H)-one]
CC(C)[C@H](CO)Nc1c(-c2nc3ccc(N4CCN(C)CC4)cc3[nH]2)c(=O)[nH]c2sccc12 [Example A16, (R)-4-((1-hydroxy-3-methylbutan-2-yl)amino)-5-(6-(4-methylpiperazin-1-yl)-1H-benzo[d]imidazol-2-yl)thieno[2,3-b]pyridin-6(7H)-one]
CN1CCN(c2ccc3nc(-c4c(NC5CCOCC5)c5cscc5[nH]c4=O)[nH]c3c2)CC1 [Example A25, 3-(6-(4-methylpiperazin-1-yl)-1H-benzo[d]imidazol-2-yl)-4-((tetrahydro-2H-pyran-4-yl)amino)thieno[3,4-b]pyridin-2(1H)-one]
CN1CCN(c2ccc3nc(-c4c(NCCN5CCOCC5)c5cscc5[nH]c4=O)[nH]c3c2)CC1 [Example A26, 3-(6-(4-methylpiperazin-1-yl)-1H-benzo[d]imidazol-2-yl)-4-((2-morpholinoethyl)amino) thieno[3,4-b]pyridin-2(1H)-one]
CN1CCN(c2ccc3nc(-c4c(NCc5ccccn5)c5cscc5[nH]c4=O)[nH]c3c2)CC1 [Example A28, 3-(6-(4-methylpiperazin-1-yl)-1H-benzo[d]imidazol-2-yl)-4-((pyridin-2-ylmethyl)amino)thieno[3,4-b]pyridin-2(1H)-one]
CN1CCN(c2ccc3nc(-c4c(O)c5sccc5[nH]c4=O)[nH]c3c2)CC1 [Example A29, 7-hydroxy-6-(6-(4-methylpiperazin-1-yl)-1H-benzo[d]imidazol-2-yl)thieno[3,2-b]pyridin-5(4H)-one]
C[C@@H]1CN(c2ccc3nc(-c4c(NC5CCCC5)c5sccc5[nH]c4=O)[nH]c3c2)C[C@H](C)N1C [Example A47, 7-(cyclopentylamino)-6-(6-(3r,5s)-rel-3,4,5-trimethylpiper-azin-1-yl)-1H-benzo[d]imidazol-2-yl)thieno[3,2-b]pyridin-5(4H)-one]
Nc1c(-c2nc3cc(F)c(N4CCOCC4)cc3[nH]2)c(=O)[nH]c2sccc12 [Example A56, 4-amino-5-(5-fluoro-6-morpholino-1H-benzo[d]-imidazol-2-yl)-thieno-[2,3b]-pyridin-6(7H)-one]
CN1CCN(c2ccc3nc(-c4c(NC5CC5)c5sccc5[nH]c4=O)[nH]c3c2)CC1 [Example A63, 7-(cyclopropylamino)-6-(6-(4-methylpiperazin-1-yl)-1H-benzo[d]imidazol-2-yl)thieno[3,2-b]-pyridin-5(4H)-one 2,2,2-trifluroaceatate]
COCCNc1c(-c2nc3ccc(N4CCN(C)CC4)cc3[nH]2)c(=O)[nH]c2sccc12 [Example A74, 4-((2-methoxyethyl)amino)-5-(6-(4-methylpiperazin-1-yl)-1H-benzo[d]imidazol-2-yl)thieno[2,3-b]pyridin-6(7H)-one]
CN1CCN(c2ccc3nc(-c4c(N[C@@H]5CCC[C@H]5O)c5cscc5[nH]c4=O)[nH]c3c2)CC1 [Example A75, 4-(((1R,2R)-2-hydroxycyclopentyl)amino)-3-(6-(4-methylpiperazin-1-yl)-1H-benzo[d]imidazol-2-yl)thieno[3,4-b]pyridin-2(1H)-one]
C[C@@H]1CN(c2ccc3nc(-c4c(N)c5ccsc5[nH]c4=O)[nH]c3c2)C[C@H](C)O1 [Example A76, 4-amino-5-(6-((2S,6R)-2,6-dimethylmorpholino)-1H-benzo[d]imidazol-2-yl)thieno[2,3-b]pyridin-6(7H)-one]
CN1CCN(c2ccc3nc(-c4c(N[C@@H]5CCCOC5)c5ccsc5[nH]c4=O)[nH]c3c2)CC1 [Example A77, (R)-5-(6-(4-methylpiperazin-1-yl)-1H-benzo[d]imidazol-2-yl)-4-((tetrahydro-2H-pyran-3-yl)amino)thieno[2,3-b]pyridin-6(7H)-one]

IC50, > 500 nM:
Cc1cc2c(N)c(-c3nc4ccc(N5CCN(C)CC5)cc4[nH]3)c(=O)[nH]c2s1 [Example A3, 4-amino-2-methyl-5-(6-(4-methylpiperazin-1-yl)-1H-benzo[d]imidazol-2-yl)thieno[2,3-b]pyridin-6(7H)-one]
COc1csc2[nH]c(=O)c(-c3nc4ccc(N5CCN(C)CC5)cc4[nH]3)c(N)c12 [Example A5, 4-amino-3-methoxy-5-(6-(4-methylpiperazin-1-yl)-1H-benzo[d]imidazol-2-yl)thieno[2,3-b]pyridin-6(7H)-one]
Cc1csc2[nH]c(=O)c(-c3nc4ccc(N5CCN(C)CC5)cc4[nH]3)c(NC3CCOCC3)c12 [Example A20, 3-methyl-5-(6-(4-methylpiperazin-1-yl)-1H-benzo[d]imidazol-2-yl)-4-((tetrahydro-2H-pyran-4-yl)amino)thieno[2,3-b]pyridin-6(7H)-one]
Cc1cc2[nH]c(=O)c(-c3nc4ccc(N5CCN(C)CC5)cc4[nH]3)c(N)c2s1 [Example A32, 7-amino-2-methyl-6-(6-(4-methylpiperazin-1-yl)-1H-benzo[d]imidazol-2-yl)thieno[3,2-b]pyridin-5(4H)-one]
CN1CCN(c2ccc3nc(-c4c(N5CCOCC5)c5sccc5[nH]c4=O)[nH]c3c2)CC1 [Example A49, 6-(6-(4-methylpiperazin-1-yl)-1H-benzo[d]imidazol-2-yl)-7-morpholinothieno[3,2-b]pyridin-5(4H)-one]
CN1CCN(c2ccc3nc(-c4c(N5CCC(O)CC5)c5sccc5[nH]c4=O)[nH]c3c2)CC1 [Example A50, 7-(4-hydroxypiperidin-1-yl)-6-(6-(4-methylpiperazin-1-yl)-1H-benzo[d]imidazol-2-yl)thieno[3,2-b]pyridin-5(4H)-one]

Target: T2, LCK (Homo sapiens, UniProt P06239)
T2 construct: purchased Invitrogen P3043
T2 sequence (P06239 whole entry, species assumed): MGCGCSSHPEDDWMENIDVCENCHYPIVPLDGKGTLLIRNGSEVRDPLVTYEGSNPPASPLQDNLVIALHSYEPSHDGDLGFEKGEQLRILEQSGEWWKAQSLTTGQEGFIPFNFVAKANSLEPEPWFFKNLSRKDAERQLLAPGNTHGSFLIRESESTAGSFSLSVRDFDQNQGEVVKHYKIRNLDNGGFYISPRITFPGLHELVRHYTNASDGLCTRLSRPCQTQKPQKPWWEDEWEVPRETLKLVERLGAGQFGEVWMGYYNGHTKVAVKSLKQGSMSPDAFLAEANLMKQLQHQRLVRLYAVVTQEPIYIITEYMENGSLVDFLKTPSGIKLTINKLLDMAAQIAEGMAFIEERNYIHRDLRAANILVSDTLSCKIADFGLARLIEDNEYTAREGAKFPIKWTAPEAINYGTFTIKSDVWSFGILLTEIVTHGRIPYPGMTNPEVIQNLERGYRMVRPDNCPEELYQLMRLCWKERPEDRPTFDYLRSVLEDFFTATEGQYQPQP
Assay: LCK inhibition, FRET based Z'-LYTE Kinase Assay
Assay type: biochemical
Conditions: 25 nM LCK, 180 μM ATP; read-out: IC50 Range Lck
Description: FLT3 and LCK compound inhibition were determined using FRET based Z′-LYTE Kinase Assay Kit with Tyrosine 2 peptide as the substrate (Invitrogen cat #PV3191). […] The % inhibition values were determined according to the manufacturer's directions and IC50 values were obtained using a non-linear 4 point logistic curve fit (XLfit4, IDBS).

IC50, > 500 nM:
COc1csc2[nH]c(=O)c(-c3nc4ccc(N5CCN(C)CC5)cc4[nH]3)c(N)c12 [Example A5, 4-amino-3-methoxy-5-(6-(4-methylpiperazin-1-yl)-1H-benzo[d]imidazol-2-yl)thieno[2,3-b]pyridin-6(7H)-one]
CN1CCN(c2ccc3nc(-c4c(N5CCC(O)CC5)c5sccc5[nH]c4=O)[nH]c3c2)CC1 [Example A50, 7-(4-hydroxypiperidin-1-yl)-6-(6-(4-methylpiperazin-1-yl)-1H-benzo[d]imidazol-2-yl)thieno[3,2-b]pyridin-5(4H)-one]

IC50, 50 to 500 nM:
CN1CCN(c2ccc3nc(-c4c(O)c5sccc5[nH]c4=O)[nH]c3c2)CC1 [Example A29, 7-hydroxy-6-(6-(4-methylpiperazin-1-yl)-1H-benzo[d]imidazol-2-yl)thieno[3,2-b]pyridin-5(4H)-one]
CN1CCN(C(=O)c2ccc3[nH]c(-c4c(N)c5ccsc5[nH]c4=O)nc3c2)CC1 [Example A60, 4-amino-5-(5-(4-methylpiperazine-1-carbonyl)-1H-benzo[d]imidazol-2-yl)thieno[2,3-b]-pyridin-6(7H)-one]

IC50, ≤ 50 nM:
Cc1cc2[nH]c(=O)c(-c3nc4ccc(N5CCN(C)CC5)cc4[nH]3)c(N)c2s1 [Example A32, 7-amino-2-methyl-6-(6-(4-methylpiperazin-1-yl)-1H-benzo[d]imidazol-2-yl)thieno[3,2-b]pyridin-5(4H)-one]
